Laboratory results as given in paper PMC6299892 (Journal of Genetic Engineering & Biotechnology, 2016).

Tested on: A. pullulans NAC8 yellow laccase
Assay: absorbance at […] nm, double reciprocal plot
Format: biochemical, Aureobasidium pullulans
Conditions: guaiacol 0.1-3.0 mM; standard assay: acetate buffer pH 5.0, 25 °C

SMILES: COc1ccccc1O [guaiacol, 2-methoxyphenol]
- Km: 1050 ± 120 µM
